According to patent publication EP4134440B1, “MALVA SYLVESTRIS FERMENTATION PRODUCT AND USE THEREOF” (Kabushiki Kaisha Yakult Honsha, priority 2020, dated 2021):
Converted amounts (≈) assume the structure as drawn.

How the values were obtained:
[1] = system: B16 mouse melanoma cells (B16-F1); experiment: Melanin production suppression test: intracellular melanin production level; format: cell-based; conditions: 72 h, three days in 0.5 mM theophylline-containing medium, concentration expressed as evaporation residue concentration
Experimental: (§1) As cells, B16 mouse melanoma cells (B16-F1) were used. Cells passaged 5-10 times, counting from the time of purchase, were used in the test. As medium, DMEM containing 5 or 10% FBS was used.
A quantity of 500 µL of DMEM medium containing 5% FBS was placed in a 24-well plate, and B16 melanoma cells were seeded 1.4 × 10^4 cells/well ([…]), then cultured for 24 hours at 37°C under 5% CO2. Thereafter, the medium was replaced with 1 mL of 0.5 mM theophylline-containing medium containing a test sample, and the cells were cultured for another three days. […]
After culture was completed, the cells were washed twice with PBS(-) and fixed with 99.5% ethanol. […] After allowing to cool, the entire amount of cell lysate was transferred to a 96-well plate, and the 405 nm absorbance was measured. The intracellular melanin production level per culture well was determined from a calibration curve that used synthetic melanin, and the intracellular melanin production level relative to the control was determined by the following formula. […]
The melanin production-suppressing activity of the obtained fermentation supernatants or unfermented plant extract was measured using B16 melanoma cells in the same way as in Test Example 2. […]

[2] = system: B16 mouse melanoma cells (B16-F1); experiment: Melanin production suppression test: intracellular protein level (BCA method); format: cell-based; conditions: 72 h, three days in 0.5 mM theophylline-containing medium, concentration as evaporation residue concentration, * = estimated value
Experimental: as §1
A quantity of 500 µL of DMEM medium containing 5% FBS was placed in a 24-well plate, and B16 melanoma cells were seeded 1.4 × 10^4 cells/well (7.5 × 10^4 cells/cm^2), then cultured for 24 hours at 37°C under 5% CO2. Thereafter, the medium was replaced with 1 mL of 0.5 mM theophylline-containing medium containing a test sample, and the cells were cultured for another three days.
As the test sample, a fermentation supernatant by each lactic acid bacterium or unfermented Malva sylvestris extract was added to make a blend ratio (volume ratio) of 0.5%, 1%, 2%, or 5% in the medium, taking the undiluted sample solution as 100%. As a control, RO water was added to the medium in the same blend ratios instead of the fermentation supernatant by each lactic acid bacterium or unfermented Malva sylvestris extract. […]
The cell lysate was diluted ten-fold by ultrapure water (milli-Q water) and assayed by the BCA method (Pierce BCA Protein assay kit) using BSA as the reference protein, and the intracellular protein level relative to the control was determined using the following formula. […]

OC[C@H]1O[C@@H](Oc2ccc(O)cc2)[C@H](O)[C@@H](O)[C@@H]1O [compound 15, Arbutin]
IC50 [1]: 340 µg/mL (≈ 1250 µM) | IC50 [2]: 1200 µg/mL (≈ 4410 µM)
